Experimental findings from patent EP1506960B1, “Indole compounds as inhibitors of tubulin polymerisation for the treatment of angiogenesis-related disorders” (National Health Research Institutes, priority 2003, dated 2005) are described below.

Read-outs that look alike come from different tables or passages of the source.

The test system of one data set is KB100. Briefly: Cell growth inhibition assay on drug-resistant line KB100. Particulars: Homo sapiens, 72 h, read-out: Cytotoxicity KB100. How it is done:
(§1) Cell Growth Inhibition Assay: MCF-7 breast carcinoma cells were maintained in plastic dishes in DMEM medium supplemented with 10% fetal bovine serum. For in vitro treatment, tumor cells were seeded in […] of culture medium/well in 96-well plates to a final cell density of 6 x 10^3 cell/mL and incubated in a CO2 incubator at 37 °C for 24 h. The cells were treated with at least five different concentrations of a test indole compound, and incubated in a CO2 incubator at 37 °C for 72 h. The number of viable cells was estimated using MTS assay and absorbance was measured at 490 nm. Cytotoxicity of the test compounds was expressed in terms of IC50 values. The values presented represent averages of three independent experiments, each with duplicate samples.
(§2) Indole compounds were tested against several panels of drug-resistant cell lines. It is well known that several anti-mitotic agents, including vinca alkaloid (vincristine, vinblastine) and taxol, have been introduced in clinic to treat various human cancers. […] The mechanisms responsible for taxol resistance include overexpression of p-glycoprotein and mutation of tubulin.
(§3) The mechanisms responsible for VP16-resistance (KB7D) were down-regulation of topoisomerase II and overexpression of MRP 1.

The subject of another data set is KB7D. Briefly: cells. The conditions noted are these: Homo sapiens, 72 h, read-out: Cytotoxicity KB7D. The procedure: as §1, §2, §3
Another data set deals with KB-Vin10. Briefly: cells. Particulars: read-out: Cytotoxicity KB -Vin10. The procedure: as §1, §2, §3
For a further data set, the system named is KB. Briefly: Cell growth inhibition assay (cytotoxicity), KB cell line. Particulars: Homo sapiens, 72 h, read-out: Cytotoxicity KB. How it is done: as §1, §2, §3
A further data set relates to HONECis-6. Briefly: Cell growth inhibition assay on drug-resistant line HONECis-6. Particulars: read-out: Cytotoxicity HONECis -6, 72 h. How it is done:
as §1, §2, §3

A further data set concerns KB7DR. Kind of data set: Cell growth inhibition assay on line KB7DR. Particulars: Homo sapiens, 72 h, read-out: Cytotoxicity KB7DR. How it is done: as §1, §2, §3
The subject of the next data set is MKN45 stomach cell line. Kind of data set: Cell growth inhibition assay (cytotoxicity), MKN45. It is filed as cell-based. Particulars: Homo sapiens, MKN-45, Table 2, MTS, 72 h. How it is done: (§4) In addition, indole compounds described in the "Summary" section were also tested on the A549 lung cell line, MESSA uterine cell line, MKN45 stomach cell line, SW480 colon cell line, NUGC3 stomach cell line, and MESSA/DX5 uterine cell line.

In the next data set the test system is Human MKN45 cancer cells. Kind of data set: Tumor regression model, MKN45 xenograft. The data set is classed as in vivo, Male CD 1 nude mice. The procedure: (§5) Tumor Regression Models: The procedures of cancer cell implantation were similar to those previously reported in Chen et al., Cancer Res., (1998) 58:2777-2783, with modifications. Male CD 1 nude mice (5~6 weeks old) were purchased from Charles River Laboratories (Wilmington, MA, USA). Human MKN45 and KB cancer cells were maintained in RPMI 1640 plus 10% fetal bovine serum. Each animal was subcutaneously implanted with 5×10^5 MKN45 or 1×10^6 KB cells in 0.1 ml at one flank. Tumor growth was examined three times a week after implantation. The volume of tumor was measured with a caliper and calculated as 1/2×length×width^2 in mm^3. Test compounds were dissolved completely in a vehicle mixture of dimethyl sulfoxide:cremophor:saline (1:4:15). When the size of a growing tumor reached approximately 100 mm^3, the mice were treated with test compounds intravenously from tail veins at a concentration of 50 mg/kg daily for two weeks. Mice in a control group were treated with the solvent vehicle only. Tumor sizes and body weights were measured twice a week and after the mice were sacrificed.

A further data set relates to SW480 colon cell line. Briefly: Cell growth inhibition assay (cytotoxicity), SW480. It is filed as cell-based. The conditions noted are these: Homo sapiens, Table 2, MTS, 72 h. How it is done:
as §4

In a further data set the test system is Human KB cancer cells. Kind of data set: Tumor regression model, KB xenograft. Particulars: Compound 1 and cisplatin together vs cisplatin alone. It is filed as in vivo, Male CD 1 nude mice. How it is done: as §5
The test system of the next data set is MESSA uterine cell line. Kind of data set: Cell growth inhibition assay (cytotoxicity), MESSA. The data set is classed as cell-based. Particulars: Homo sapiens, MES-SA, Table 2, MTS, 72 h. The procedure:
as §4

Data set [1] concerns MESSA/DX5 uterine cell line. Kind of data set: Cell growth inhibition assay (cytotoxicity), MESSA/DX5. It is filed as cell-based. Particulars: Homo sapiens, MES-SA/Dx5, Table 2, MTS, 72 h. The procedure:
as §4

A further data set has as its system NUGC. Briefly: Cell growth inhibition assay (cytotoxicity), NUGC. The conditions noted are these: Homo sapiens, Table 2, Stomach, MTS, 72 h. The data set is classed as cell-based. How it is done: as §4
In data set [2] the test system is MCF-7 breast carcinoma cells. Kind of data set: Cell growth inhibition assay (cytotoxicity), MCF7. The data set is classed as cell-based. Particulars: Homo sapiens, Table 2, MTS, 72 h. The procedure: In one assay, an indole compound is tested for its cytotoxicity on MCF-7 cells (a breast carcinoma cell line). More specifically, cells are incubated with a test compound for 24 hr. The cytotoxic effect can be determined using the MTS (3-(4,5-dimethylthiazol-2-yl)-5-(3-carboxymethoxyphenyl)-2-(4-sulfophenyl)-2H-tetrazolium, inner salt) assay method described in Goodwin et al. (1995, J. Immunol. Methods. 179: 95-103). Cytotoxicity of the test compound is expressed in terms of IC50 values (i.e., the concentration of the test compound which achieves a half-maximal inhibition of cell growth).

A further data set concerns KBtaxol-5. Kind of data set: Cell growth inhibition assay on drug-resistant line KBtaxol-5. The conditions noted are these: Homo sapiens, 72 h, read-out: Cytotoxicity KBtaxol -5. How it is done:
as §1, §2, §3

The next data set relates to HONE-1. Briefly: Cell growth inhibition assay (cytotoxicity), HONE-1 cell line. Particulars: Homo sapiens, HONE1, 72 h.
A further data set deals with KB100R. Briefly: Cell growth inhibition assay on line KB100R. The conditions noted are these: Homo sapiens, 72 h, read-out: Cytotoxicity KB100R. How it is done:
as §1, §2, §3

In the next data set the test system is A549 lung cell line. Briefly: Cell growth inhibition assay (cytotoxicity), A549. It is filed as cell-based. The conditions noted are these: Homo sapiens, Table 2, MTS, 72 h. How it is done: as §4

Turning to `CC[C@@]1(O)C(=O)OCc2c1cc1n(c2=O)Cc2cc3ccccc3nc2-1` [CPT, camptothecin], the IC50 in the data set on KB100 worked out at 1290 nM; in the data set on KB7D it was 133 nM; with KB-Vin10 (Homo sapiens, KB-VIN10, 72 h), 400 nM; with KB it was 26 nM.

As for `N.N.[Cl][Pt][Cl]` [Cisplatin, reference compound], the IC50 in the data set with HONECis-6 (Table 1, Cis Res., MTS) was determined as 15000 nM; in the data set on KB-Vin10 (Table 1, Vin. Res, MTS, 72 h), 5 nM.

As for `COc1ccc2c(C(=O)c3cc(OC)c(OC)c(OC)c3)c[nH]c2c1` [Compound 1, (6-methoxy-1H-indol-3-yl)-(3,4,5-trimethoxy-phenyl)-methanone], the IC50 was 6 nM in the data set with KB7DR; 8 nM in the data set on KB100; 4 nM in the data set with MKN45 stomach cell line; 4.5 nM in the data set on HONECis-6 (Homo sapiens); 3 nM in the data set on SW480 colon cell line; 4 nM in the data set on KB7D. Further, the IC50 in the data set with KB-Vin10 (Homo sapiens, KB-VIN10, 72 h) is 7 nM; with MESSA uterine cell line it was 7 nM; in data set [1], 3.8 nM; with NUGC it was 3 nM; in data set [2], 7.6 nM; in the data set with KBtaxol-5, 7 nM. Further, the IC50 in the data set with HONE-1 (read-out: Cytotoxicity HONE -1) is 4 nM; in the data set on HONE-1 (read-out: Cytotoxicity HONE-1), 4 nM; in the data set with KB100R it was 12 nM; with KB, 6 nM; in the data set with A549 lung cell line, 17 nM. Moreover, the “activity in inhibiting tumor growth, administered together with cisplatin” value in the data set with Human MKN45 cancer cells (Compound 1 and cisplatin together vs cisplatin alone) is given as “higher activity in inhibiting tumor growth than cisplatin administered alone”; in the data set on Human KB cancer cells it was “higher activity in inhibiting tumor growth than cisplatin administered alone”. Further, the “activity in inhibiting tumor growth” value in the data set with Human MKN45 cancer cells (intravenously 50 mg/kg daily for two weeks, compared with cisplatin) is reported as “higher activity in inhibiting tumor growth than cisplatin”.

Turning to `COc1ccc2c(C(=O)c3cc(OC)c(OC)c(OC)c3)cn(C(=O)OC(C)(C)C)c2c1` [Compound 6, 6-methoxy-3-(3,4,5-trimethoxy-benzoyl)-indole-1-carboxylic acid tert-butyl ester], the IC50 in the data set on KB7DR was 15 nM; with KB100, 18 nM; with HONECis-6 (Homo sapiens), 19 nM; in the data set with KB7D it was 8 nM; in the data set with KB-Vin10 (Homo sapiens, KB-VIN10, 72 h) it was 9.6 nM; in the data set with KBtaxol-5 it was 37 nM. Further, the IC50 in the data set on HONE-1 (read-out: Cytotoxicity HONE -1) was 19 nM; with KB100R, 18 nM; in the data set on KB, 13 nM.

As for `CC(=O)O[C@H]1C(=O)[C@@]2(C)[C@H]([C@H](OC(=O)c3ccccc3)[C@]3(O)C[C@H](OC(=O)[C@H](O)[C@@H](NC(=O)c4ccccc4)c4ccccc4)C(C)=C1C3(C)C)[C@]1(OC(C)=O)CO[C@@H]1C[C@@H]2O` [Taxol, paclitaxel, reference compound], the IC50 amounted to 80 nM in the data set on KBtaxol-5 and 10 nM in the data set on KB.

As to `COc1cc([C@@H]2c3cc4c(cc3[C@@H](O[C@@H]3O[C@@H]5CO[C@@H](C)O[C@H]5[C@H](O)[C@H]3O)[C@H]3COC(=O)[C@H]23)OCO4)cc(OC)c1O` [VP-16], the IC50 with KB7DR is 3500 nM; with KB7D it was 44000 nM; with KB it was 500 nM.

As to `CC[C@]1(O)C[C@H]2CN(CCc3c([nH]c4ccccc34)[C@@](C(=O)OC)(c3cc4c(cc3OC)N(C=O)[C@H]3[C@@](O)(C(=O)OC)[C@H](OC(C)=O)[C@]5(CC)C=CCN6CC[C@]43[C@@H]65)C2)C1` [Vincristine, reference compound], the IC50 stood at 337 nM with KB7DR; 0.6 nM with HONECis-6 (Homo sapiens); 1920 nM in the data set with KB7D; 43 nM in the data set with KB-Vin10 (Homo sapiens, KB-VIN10, 72 h); 0.5 nM in the data set with HONE-1 (read-out: Cytotoxicity HONE -1); 1 nM with KB.
